In paper PMC5442318, “Hundreds of dual-stage antimalarial molecules discovered by a functional gametocyte screen” (Nature Communications, 2017):
Like-named read-outs stand apart in the source and are kept apart here.

Legend:
[1] = tested on: P. falciparum female gametes; experiment: Pf FGAA with compounds added 30 min after triggering gametocyte activation (gamete-targeting); type: cell-based, Plasmodium falciparum NF54; conditions: 0h incubation time
HepG2 cells = experiment: HepG2 cytotoxicity assay; type: cell-based; conditions: for Selectivity ratio: HepG2 TOX50 versus Pf FGAA IC50
In short: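 Post-incubation CellTiter-Glo luminescence; 30 min RT equilibration, 10 min RT stabilization before reading.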

[2] = tested on: P. falciparum asexual blood stages; conditions: ref 1 (Gamo, F. J. et al., Nature 465, 305-310, 2010), cited from earlier work; for IC50: TCAMS asexual blood stage data, read-out: Pf Asexual blood stages XC50; for Pf Asexual stages XC50: TCAMS data
[3] = tested on: P. falciparum stages IV–V gametocytes; experiment: Gametocytocidal ATP-depletion assay (gametocyte ATP bioluminescence); type: cell-based, Plasmodium falciparum; conditions: for inhibition at 2 µM: Plasmodium falciparum, mean
In short: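 Purified stage IV–V gametocytes (12,500/well) incubated with compound for 48 h at 37 °C under 3% O2/5% CO2. ATP measured by BacTiter-Glo luminescence as a viability surrogate; hits tested at 2 μM single concentration.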

[4] = tested on: P. falciparum stage V female gametocytes; experiment: P. falciparum female gametocyte activation assay (Pf FGAA), 24 h or 48 h preincubation, Pfs25 expression readout; type: cell-based, Plasmodium falciparum NF54; conditions: for Pf FGAA classification: SLOW / FAST / GAMETE from activity at 48h, 24h, 0h incubation
In short: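 Purified stage V gametocytes from P. falciparum NF54 gametocyte cultures were exposed to compounds for 24 h or 48 h at 37 °C under 3% O2/5% CO2, then activated by temperature drop plus xanthurenic acid. Activated females were stained with Cy3-anti-Pfs25 (0.5 μg ml^−1) for 24 h at 26 °C and counted by high-content imaging; pIC50 by nonlinear regression.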

[5] = Plasmodium falciparum, 24h incubation time, read-out: Pf FGAA IC50 (µM) 24h
[6] = Plasmodium falciparum, P. falciparum female gametocytes, mean, read-out: Gametocytes mean Pf FGAA IC50
[7] = 24h incubation time, read-out: Pf FGAA IC50 (µM) 24h
[8] = P. falciparum female gametocytes, mean, read-out: Gametocytes mean Pf FGAA IC50

SMILES | IC50 ([1]; Plasmodium falciparum) [µM] | Selectivity ratio (HepG2 cells) | HepG2 cells mean TOX50 (HepG2 cells; HepG2 cells, mean) [µM] | IC50 [2] [nM] | Pf Asexual stages XC50 [2] [nM] | inhibition at 2 µM [3] [%] | IC50 [4, 5] [µM] | IC50 [4, 6] [µM] | Pf FGAA classification [4] | IC50 [1] [µM] | Gametocytes mean ATP inhibition at 2µM [3] [%] | IC50 [4, 7] [µM] | IC50 [4, 8] [µM] | HepG2 cells TOX50 (HepG2 cells; HepG2 cells) [µM] | HepG2 cells mean TOX50 (HepG2 cells; human, 48 h) [µM]
CN1CCC(N2CCC(Oc3cccc(C(=O)NCCCC4CCCC4)c3)CC2)CC1 [TCMDC-124677] | > 20 | 3.34 | 4.90 | 840 | 230 | -0.79 | 3.87 | 1.47 | SLOW |  |  |  |  |  | 
Cc1ccc2c(c1)c(C1CCN(C(=O)c3ccc([N+](=O)[O-])o3)CC1)cn2C [TCMDC-124787] |  |  | 28.85 | 750 | 750 |  |  |  | FAST | > 20 | -6.61 | 0.88 | 2.12 |  | 
C=CCc1cccc(CN2CCC(c3cc(O)nc(-c4ccccn4)n3)CC2)c1O [TCMDC-124851] | 2.42 | 6.59 | 11.49 | 1100 | 1000 | 17.9 | 0.71 | 1.74 | FAST |  |  |  |  |  | 
CCCc1cc(=O)[nH]c(-n2nc(C)cc2NC(=O)CC(c2ccccc2)c2ccccc2)n1 [TCMDC-124940] |  |  | >100 | 620 | 510 |  |  |  | FAST | > 20 | 0.055 | 0.41 | 1.3 | >100 | 
COc1ccc(NC(=O)Nc2ccc(Nc3nc(C)cc(N4CCCC4)n3)cc2)cc1 [TCMDC-124958] | 10.1 | 11.05 | 11.89 | 140 | 140 | -9.01 | 2.16 | 1.08 | FAST |  |  |  |  |  | 
O=C(c1ccc([N+](=O)[O-])o1)N1CCN(c2nc3c(F)cc(F)cc3s2)CC1 [TCMDC-125149] |  |  | >100 | 970 | 970 |  |  |  | FAST | > 20 | 5.52 | 1.25 | 1.31 | >100 | 
CNCCCNCc1ccc(-c2ccc(F)c(Cl)c2)o1.Cl [TCMDC-125237] |  |  | 10.60 | 750 | 750 |  |  |  | FAST | > 20 | -1.51 | 1.57 | 1.87 |  | 
Cc1ccc(-n2c(Sc3ncnc4sccc34)nnc2N2CCCC2)cc1 [TCMDC-125247] |  |  | 89.13 | 260 | 260 |  |  |  | SLOW | > 20 | 22.13 | > 20 | 0.49 |  | 
O=C(Nc1nc(-c2ccccn2)cs1)c1ccc(S(=O)(=O)N2CCc3ccccc32)cc1 [TCMDC-125432] |  |  | 29.22 | 830 | 830 |  |  |  | FAST | > 20 | -8.57 | 0.7 | 1.07 |  | 
CCN(CCNS(C)(=O)=O)c1ccc(N)c(C)c1.O.O=S(=O)(O)O [TCMDC-125836] |  |  | 26.14 | 880 | 880 |  |  |  | FAST | 3.56 | 7.23 | 0.3 | 1.14 |  | 
C[C@H](Cc1ccc(OCCCCCCOc2ccc(C[C@@H](C)N[C@H](C)c3ccccc3)cc2)cc1)NC[C@H](O)c1cccc(Cl)c1.Cl [TCMDC-131564] |  |  | 4.28 | 240 | 240 |  |  |  | SLOW | > 20 | 38.50 | 2.89 | 0.72 |  | 
N#Cc1c(F)cc(N2CCC(NCC[C@H](N)Cc3ccc(F)c(F)c3)CC2)cc1F [TCMDC-132121] | 7.08 | 6.30 |  | 860 | 860 | 7.46 | 7.16 | 0.73 | SLOW |  |  |  |  |  | 4.58
O=C(O)C(F)(F)F.O=S(=O)(NCCN1CCCC1)c1ccc(-c2cccc(CNC3Cc4ccccc4C3)c2)s1 [TCMDC-132217] |  |  | 5.50 | 750 | 750 |  |  |  | SLOW | > 20 | 18.03 | 5.37 | 1.29 |  | 
CN1CCC(NCc2cccc(-c3ccc(S(=O)(=O)NCc4ccccc4)c(F)c3)c2)CC1.O=C(O)C(F)(F)F [TCMDC-132219] |  |  | 5.13 | 320 | 320 |  |  |  | SLOW | > 20 | -1.59 | 12.2 | 2.63 |  | 
Cc1cccc2nc(-c3ccc(-c4ccc(CNCc5ccc(CN)cc5)cc4)s3)[nH]c12.O=C(O)C(F)(F)F [TCMDC-132809] |  |  | 14.79 | 440 | 440 |  |  |  | FAST | 5.14 | 36.48 | 1.17 | 0.47 |  | 
Cc1cccc2nc(-c3ccc(-c4ccc(CNCc5ccc(CN)cc5)cc4)cc3)[nH]c12.O=C(O)C(F)(F)F [TCMDC-132813] |  |  | 18.09 | 720 | 720 |  |  |  | FAST | 4.35 | 13.49 | 0.21 | 2.16 |  | 
FC(F)(F)c1ccc2[nH]c(-c3ccc(-c4ccc(CNCCN5CCNCC5)cc4)cc3)nc2c1.O=C(O)C(F)(F)F [TCMDC-132865] |  |  | 16.43 | 1120 | 1120 |  |  |  | SLOW | > 20 | -10.30 | > 20 | 1.41 |  | 
